Data taken from patent US20040219201A1, “Tempamine compositions and methods of use” (priority 2001, published 2004).

Columns and labels:
[1] = Lipid bilayer/aqueous phase distribution (dialysis membrane); type: physicochemical; conditions: no ammonium sulfate gradient
Procedure: In another study, the partition of tempamine between the lipid bilayer and the aqueous phase was determined. The lipid bilayer/aqueous phase distribution was performed using a dialysis membrane separating the phases in 0.15 M NaCl (Samuni, A., et al., Free Radic Biol Med., 22:1165 (1997)). There was no predisposition of tempamine for the lipid bilayer over the 0.15 M NaCl aqueous phase and the distribution of tempamine was equal between the liposome preparation (10% egg phosphatidylcholine (EPC) (w/v)) and 0.15 M NaCl (data not shown).

[2] = Percent encapsulation of tempamine in liposomes (EPR); type: physicochemical; conditions: 0.2 mM TMN
Procedure: The amount of tempamine encapsulated in the liposomes was determined using EPR, as described in Example 3.
EPR spectrometry was employed to detect tempamine concentration using a JES-RE3X EPR spectrometer (JEOL Co., Japan) (Fuchs, J., et al., Free Radic. Biol. Med. 22:967-976, (1997)). Samples were drawn by a syringe into a gas-permeable Teflon capillary tube of 0.81 mm i.d. and 0.05 mm wall thickness (Zeus Industrial Products, Raritan, N.J., USA). The capillary tube was inserted into a 2.5-mm-i.d. quartz tube open at both ends, and placed in the EPR cavity. EPR spectra were recorded with center field set at 329 mT, 100 kHz modulation frequency, 0.1 mT modulation amplitude, and nonsaturating microwave power. […]
The amount of entrapped tempamine of liposomes prepared according to Example 2 was determined by the following procedure. First, the total tempamine in the post-loading liposome preparation (TMNmix) was measured. Then, the amount of tempamine in the post-loading liposome preparation in the presence of potassium ferricyanide, an EPR broadening agent that eliminates the signal of free (non-liposomal) tempamine, was measured. […] Then the total temparifine after releasing it from liposomes by nigericin (TMNnigencia) was measured. […]
The percent encapsulation and the quenching factor were calculated as follows: […]

Compound: CC1(C)CC(N)CC(C)(C)N1[O] [tempamine, 2,2,6,6-tetramethylpiperidine-4-amino-1-oxyl]
- distribution between liposome preparation (10% EPC w/v) and 0.15 M NaCl [1]: equal
- % Encapsulation ± S.D. ([2]; liposomes with NH4+ gradient): 84.1 ± 8.4^3%
- % Encapsulation ± S.D. ([2]; liposomes without NH4+ gradient): 6 ± 0.6%
